Structures are written as SMILES.

For one series, the target named is T1, BTK (Homo sapiens, UniProt Q06187).
T1 construct: purchased Nanosyn, Santa Clara, Calif; host or cells: 293HEK
Briefly: BTK kinase electrophoretic mobility shift assay (MSA). Particulars: 50 μM ATP, 0.5 nM BTK enzyme (Nanosyn-293HEK, WT), 3 hours at 25° C.; all examples except 50, 51, 62 and 63; read-out: BTK IC50. Type of series: biochemical.

In a further series the test system is CYP3A4. Description: CYP3A4 induction assay (CYP 3A4 mRNA by qPCR in cryopreserved human hepatocytes). The following applies: CYP3A4 mRNA fold change vs vehicle, 10 μM compound. Type of series: in vitro ADME. How it is done:
CYP induction was evaluated in vitro by determining the expression levels of CYP 3A4 mRNA using the qPCR (quantitative polymerase chain reaction) assay. On day one, cryopreserved human hepatocytes were thawed in prewarmed (37° C.) thawing medium (cryopreserved hepatocyte recovery medium, Gibco™ CM 7000; Thermo Fisher Scientific), centrifuged (1000 g for 10 minutes) and resuspended in plating medium (Gibco™ CM3000—Williams Medium E supplemented with hepatocytes plating supplement pak-serum containing; Thermo Fisher Scientific). Cells were counted by trypan blue exclusion using a hemocytometer and adjusted to a cell density of […]. Thereafter, […] of cell suspension was aliquoted per well in a 96-well plate, resulting in 60,000 cells/well. Plates were shaken in the north-south and east-west direction during plating. Plated cells were incubated at 37° C./5% CO2 in a humidified cell culture incubator for 4-6 hours. During this time, incubation medium (Gibco™ CM4000, cell maintenance supplement pack; Thermo Fisher Scientific) was mixed with Gibco™ Geltrex™ (Thermo Fischer Scientific) at the appropriate Geltrex™ protein concentration. Following recovery, medium was removed from cells and replaced with freshly prepared incubation medium. Cells were incubated overnight in a cell culture incubator (37° C./5% CO2).
The next day the incubation medium was prepared by combining the hepatocyte maintenance supplement pack with Williams medium E. The medium was warmed to 37° C. 1000× dimethyl sulfoxide compound stocks were prepared to the desired concentrations. 10 mM compound stocks in dimethyl sulfoxide were diluted (1 μL to 1 mL CM4000; final concentration=10 μM). Overlay medium was aspirated and […] dose solution added to the desired labeled 96 well plate. Cells were returned to the humidified incubator overnight (37° C./5% CO2).
On day 3, incubation medium was warmed to 37° C., and the same process for compound preparation repeated as in day 2, i.e. 1000× dimethyl sulfoxide compound stocks were prepared to the desired concentration, diluted (1:1000) in warm incubation medium, and this freshly prepared medium was used to replace treatment medium. Cells were returned to the humidified incubator (37° C./5% CO2) overnight.
On day 4, RNA isolation was performed. Prior to RNA isolation, cell viability was assessed using presto blue reagent. 10× dilution of PrestoBlue™ reagent (Thermo Fisher Scientific) was prepared by mixing 1.4 mL PrestoBlue™ with 12.6 mL incubation medium. Medium was aspirated from cells, and 100 μL of cell viability medium (10× dilution of PrestoBlue™ reagent) added and incubated for 17 minutes. Cell viability was determined by measuring absorbance using a microplate reader (Spark® 10M Tecan Life Sciences). After this measurement, media was aspirated using a multichannel aspirator and a glass pipet to completely aspirate from each well. Plates were stored or immediately used for mRNA isolation. All surfaces were cleaned using RNase away. 2× Lysis buffer was well mixed after incubation at ambient temperature. Fresh lysis buffer was prepared by mixing 0.125 μL of 0.5 mM DTT with 4.875 μL 2× lysis buffer. 1× lysis buffer containing DTT was then prepared by adding 5 μL dilution buffer to the 2× lysis buffer and mixing thoroughly. Thereafter, cell lysates were prepared by adding 1× lysis buffer to each sample well (96-well plate). Samples were incubated for 3-6 minutes at ambient temperature while shaking (350-400 rpm) to lyse the cells. Cells were scrapped with tips, and cell lysate (80 μL) was transferred to each well of the mRNA Catcher PLUS™ plate (Thermo Fisher Scientific). mRNA Catcher PLUS™ plate containing samples was covered with adhesive plastic film plate cover and incubated at ambient temperature for 45-60 minutes for RNA hybridization.
After hybridization, lysate was aspirated from the cells. […]

In series [1] the target is T2, Phosphorylation of Y223 of BTK (Homo sapiens, UniProt Q06187).
T2 construct: host or cells: healthy human whole blood, 3 donors
T2 sequence (Q06187 whole entry): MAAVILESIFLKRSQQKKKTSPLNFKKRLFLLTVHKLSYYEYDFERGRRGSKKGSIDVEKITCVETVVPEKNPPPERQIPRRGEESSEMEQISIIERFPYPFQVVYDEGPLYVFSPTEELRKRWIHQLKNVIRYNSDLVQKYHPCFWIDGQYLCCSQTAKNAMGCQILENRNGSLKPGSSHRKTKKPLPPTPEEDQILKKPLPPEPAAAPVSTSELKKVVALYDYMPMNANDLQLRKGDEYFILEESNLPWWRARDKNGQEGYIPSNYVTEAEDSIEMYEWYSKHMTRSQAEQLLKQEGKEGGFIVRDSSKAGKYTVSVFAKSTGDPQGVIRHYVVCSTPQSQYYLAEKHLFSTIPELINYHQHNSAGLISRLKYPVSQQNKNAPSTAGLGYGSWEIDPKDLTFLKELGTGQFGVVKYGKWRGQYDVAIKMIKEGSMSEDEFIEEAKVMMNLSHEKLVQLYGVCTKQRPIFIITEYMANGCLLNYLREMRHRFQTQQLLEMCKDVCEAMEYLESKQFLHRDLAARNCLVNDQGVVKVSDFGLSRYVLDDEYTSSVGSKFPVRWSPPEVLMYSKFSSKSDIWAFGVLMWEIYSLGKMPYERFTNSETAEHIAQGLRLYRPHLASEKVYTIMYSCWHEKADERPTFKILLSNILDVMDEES
Briefly: Whole blood compound screening, phosphorylation of Y223 site of BTK (MSD assay). Type of series: cell-based. Particulars: healthy human whole blood, 2 hours at 37° C., 3 separate donors; read-out: WB BTK-pY223 EC50. On the procedure:
Healthy human whole blood (WB) was collected from […]™ Technologies or […]® in sodium heparinized tubes. Whole blood was stored at ambient temperature to avoid coagulation. Each compound was tested in 3 separate donors. Compound stock solutions (10 mM) were used to generate dose titration (8 concentrations, starting concentration 10 μM, 1:4 dilution) in appropriate volume of dimethyl sulfoxide (0.2%). Whole blood was incubated with compounds in 96-well plates for 2 hours in tissue culture incubators at 37° C. under a 5% CO2 atmosphere. The whole blood was lysed in equal volume of lysis buffer (Cell Signaling Technology®, Danvers, Mass.) containing complete protease inhibitor tablet, PhosSTOP™ tablet, sodium orthovanadate and sodium fluoride and phenylmethanesulfonyl fluoride solution. The lysed whole blood was then frozen at −80° C. for overnight.
Phosphorylation of Y223 of BTK was measured using an MSD assay (Meso Scale Diagnostics, LLC, Rockville, Md.). The thawed lysed whole blood was incubated with the capturing antibody rabbit anti-human BTK (D3H5) (Cell Signaling Technology, Danvers, Mass.) at 4° C. overnight. After washing out the unbound samples, the detection antibody biotinylated rabbit anti-pY223-BTK(D9T6H) (Cell Signaling Technology®, Danvers, Mass.) was added to the plates. After washing out the unbound antibodies, SULFO-TAG Streptavidin (Meso Scale Diagnostics, LLC, Rockville, Md.) was used for detection on Meso Sector S600 (Meso Scale Diagnostics, LLC, Rockville, Md.).
The EC50 values were determined using software from Dotmatics. The activity of exemplary compounds is illustrated below.

T1 sequence (Q06187 whole entry): as above

As a reminder, the IC50 is the midpoint of a concentration-inhibition curve. For `C=CC(=O)N1C2CC1CN(C1CCNc3c1nn(-c1ccc(Oc4ccccc4)cc1)c3C(N)=O)C2` (stereo not shown) [Example 45, 2-(4-phenoxyphenyl)-7-[6-(prop-2-enoyl)-3,6-diazabicyclo[3.1.1]heptan-3-yl]-4,5,6,7-tetrahydro-2H-pyrazolo[4,3-b]pyridine-3-carboxamide], at BTK, the IC50 worked out at 2.33 nM. Further, in the series with CYP3A4, the “CYP3A4 Ind. fold” value is recorded as 25.40 fold.

As to `C=CC(=O)N1CCN([C@@H]2CCNc3c2nn(-c2ccc(Oc4cc(F)cc(F)c4)cc2)c3C(N)=O)CC1` [Example 58, (7R)-2-[4-(3,5-difluorophenoxy)phenyl]-7-[4-(prop-2-enoyl)piperazin-1-yl]-4,5,6,7-tetrahydro-2H-pyrazolo[4,3-b]pyridine-3-carboxamide], the concentration for half-maximal inhibition (IC50) on BTK amounted to 77.5 nM. The “CYP3A4 Ind. fold” value in the series on CYP3A4 was 1.58 fold.

Usually EC50 stands for the concentration giving half of the maximal effect. As for `C=CC(=O)N1CCN([C@H]2CCNc3c2nn(-c2ccc(Oc4cc(F)cc(F)c4)cc2)c3C(N)=O)CC1` [Example 59, (7S)-2-[4-(3,5-difluorophenoxy)phenyl]-7-[4-(prop-2-enoyl)piperazin-1-yl]-4,5,6,7-tetrahydro-2H-pyrazolo[4,3-b]pyridine-3-carboxamide], the half-inhibitory concentration (IC50) at BTK was found to be 2.17 nM. Further, the half-maximal effective concentration (EC50) in series [1] stood at 117 nM. Also, the “CYP3A4 Ind. fold” value with CYP3A4 amounted to 0.85 fold.

As to `C=CC(=O)N1CCN([C@@H]2CCNc3c2nn(-c2ccc(Oc4cccc(OC)c4)cc2)c3C(N)=O)CC1` [Example 91, (7R)-2-[4-(3-methoxyphenoxy)phenyl]-7-[4-(prop-2-enoyl)piperazin-1-yl]-4,5,6,7-tetrahydro-2H-pyrazolo[4,3-b]pyridine-3-carboxamide], the 50% inhibitory concentration (IC50) on BTK amounted to 1.66 nM. Further, the EC50 in series [1] worked out at 399 nM.

With `C=CC(=O)N1CCN([C@@H]2CCNc3c2nn(-c2ccc(Oc4ccc(C)cc4)cc2)c3C(N)=O)CC1` [Example 92, (7R)-2-[4-(4-methylphenoxy)phenyl]-7-[4-(prop-2-enoyl)piperazin-1-yl]-4,5,6,7-tetrahydro-2H-pyrazolo[4,3-b]pyridine-3-carboxamide], the IC50 on BTK was determined as 2.42 nM. Further, the half-maximal effective concentration (EC50) in series [1] was 608 nM.

Regarding `C=CC(=O)N1CCN([C@@H]2CCNc3c2nn(-c2ccc(Oc4ccccc4OC)cc2)c3C(N)=O)CC1` [Example 93, (7R)-2-[4-(2-methoxyphenoxy)phenyl]-7-[4-(prop-2-enoyl)piperazin-1-yl]-4,5,6,7-tetrahydro-2H-pyrazolo[4,3-b]pyridine-3-carboxamide], the half-inhibitory concentration (IC50) on BTK turned out to be 5.09 nM. Further, the EC50 in series [1] worked out at 400 nM.

(Values after patent publication US20220213092A1, “BICYCLIC PYRAZOLE BRUTON'S TYROSINE KINASE INHIBITORS” (AbbVie Inc., priority 2020, published 2022).)
